# Test results taken from patent US10717742B2, “Spiro[3H-indole-3,2′-pyrrolidin]-2(1H)-one compounds and derivatives as MDM2-P53 inhibitors” (Boehringer Ingelheim International GmbH, priority 2015, dated 2020).
# Biological target: p53-MDM2 interaction (GST-MDM2 protein aa 23-117 / biotinylated p53 wt peptide) (Homo sapiens (Human), UniProt Q00987)
# Assay: Mdm2-p53 Inhibition AlphaScreen
# Assay type: binding
# Settings: GST-MDM2 (aa 23-117) / biotinylated p53 wt peptide
# Method: Mdm2-p53 Inhibition AlphaScreen
# 15 μL of compound in 20% DMSO (serial pre-dilutions of compound are done in 100% DMSO) is pipetted to the wells of a white OptiPlate-96 (Perkin Elmer). A mix consisting of 20 nM GST-MDM2 protein (aa 23-117) and 20 nM biotinylated p53 wt peptide (encompassing aa 16-27 of wt human p53, amino acid sequence […]-Ttds-Lys-Biotin, molecular weight 2132.56 g/mol) is prepared in assay buffer (50 mM Tris/HCl pH 7.2; 120 mM NaCl; 0.1% bovine serum albumin (BSA); 5 mM dithiothreitol (DTT); 1 mM ethylenediaminetetraacetic acid (EDTA); 0.01% Tween 20). 30 μL of the mix is added to the compound dilutions and incubated for 15 min at rt while gently shaking the plate at 300 rounds per minute (rpm). Subsequently, 15 μL of premixed AlphaLISA Glutathione Acceptor Beads and AlphaScreen Streptavidin Donor Beads from PerkinElmer (in assay buffer at a concentration of 10 μg/mL each) are added and the samples are incubated for 30 min at rt in the dark (shaking 300 rpm). Afterwards, the signal is measured in a PerkinElmer Envision HIS Multilabel Reader using the AlphaScreen protocol from Perkin Elmer.
# Each plate contains negative controls where biotinylated p53-peptide and GST-MDM2 are left out and replaced by assay buffer. Negative control values are entered as low basis value when using the software GraphPad Prism for calculations. Furthermore, a positive control (5% DMSO instead of test compound; with protein/peptide mix) is pipetted. Determination of IC50 values are carried out using GraphPad Prism 3.03 software (or updates thereof).
# p53-MDM2 interaction (GST-MDM2 protein aa 23-117 / biotinylated p53 wt peptide), sequence (Q00987 23-117): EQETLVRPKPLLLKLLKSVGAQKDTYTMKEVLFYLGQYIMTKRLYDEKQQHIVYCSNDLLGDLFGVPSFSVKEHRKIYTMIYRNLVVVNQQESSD
row,Structure (SMILES),IC50 [nM]
1,Cc1c(C(=O)O)ccc2c1nc1n2CC[C@H]2[C@@H]1[C@H](c1ccnc(Cl)c1F)[C@]1(C(=O)Nc3cc(Cl)ccc31)N2CC1CC1 [Ib-207],8
2,CNC(=O)c1ccc2c(c1)nc1n2CC[C@H]2[C@@H]1[C@H](c1cccc(Cl)c1F)[C@]1(C(=O)Nc3cc(Cl)ccc31)N2CC1CC1 [Ib-209],3
3,NC(=O)c1ccc2c(c1)nc1n2CC[C@H]2[C@@H]1[C@H](c1cccc(Cl)c1F)[C@]1(C(=O)Nc3cc(Cl)ccc31)N2CC1CC1 [Ib-210],4
4,CN(C)C(=O)c1ccc2c(c1)nc1n2CC[C@H]2[C@@H]1[C@H](c1cccc(Cl)c1F)[C@]1(C(=O)Nc3cc(Cl)ccc31)N2CC1CC1 [Ib-211],11
5,O=C(NC1CC1)c1ccc2c(c1)nc1n2CC[C@H]2[C@@H]1[C@H](c1cccc(Cl)c1F)[C@]1(C(=O)Nc3cc(Cl)ccc31)N2CC1CC1 [Ib-212],5
6,CC(C)(O)CNC(=O)c1ccc2c(c1)nc1n2CC[C@H]2[C@@H]1[C@H](c1cccc(Cl)c1F)[C@]1(C(=O)Nc3cc(Cl)ccc31)N2CC1CC1 [Ib-213],7
7,O=C(NC(CO)CO)c1ccc2c(c1)nc1n2CC[C@H]2[C@@H]1[C@H](c1cccc(Cl)c1F)[C@]1(C(=O)Nc3cc(Cl)ccc31)N2CC1CC1 [Ib-214],3
8,O=C(NCCO)c1ccc2c(c1)nc1n2CC[C@H]2[C@@H]1[C@H](c1cccc(Cl)c1F)[C@]1(C(=O)Nc3cc(Cl)ccc31)N2CC1CC1 [Ib-215],4
9,COCCNC(=O)c1ccc2c(c1)nc1n2CC[C@H]2[C@@H]1[C@H](c1cccc(Cl)c1F)[C@]1(C(=O)Nc3cc(Cl)ccc31)N2CC1CC1 [Ib-216],7
10,COCC(COC)NC(=O)c1ccc2c(c1)nc1n2CC[C@H]2[C@@H]1[C@H](c1cccc(Cl)c1F)[C@]1(C(=O)Nc3cc(Cl)ccc31)N2CC1CC1 [Ib-217],4
11,O=C(NC(CO)(CO)CO)c1ccc2c(c1)nc1n2CC[C@H]2[C@@H]1[C@H](c1cccc(Cl)c1F)[C@]1(C(=O)Nc3cc(Cl)ccc31)N2CC1CC1 [Ib-218],6
12,COCCOCCNC(=O)c1ccc2c(c1)nc1n2CC[C@H]2[C@@H]1[C@H](c1cccc(Cl)c1F)[C@]1(C(=O)Nc3cc(Cl)ccc31)N2CC1CC1 [Ib-219],5
13,O=C(c1ccc2c(c1)nc1n2CC[C@H]2[C@@H]1[C@H](c1cccc(Cl)c1F)[C@]1(C(=O)Nc3cc(Cl)ccc31)N2CC1CC1)N1CCOCC1 [Ib-220],10
14,CN1CCN(C(=O)c2ccc3c(c2)nc2n3CC[C@H]3[C@@H]2[C@H](c2cccc(Cl)c2F)[C@]2(C(=O)Nc4cc(Cl)ccc42)N3CC2CC2)CC1 [Ib-221],10
15,NCCNC(=O)c1ccc2c(c1)nc1n2CC[C@H]2[C@@H]1[C@H](c1cccc(Cl)c1F)[C@]1(C(=O)Nc3cc(Cl)ccc31)N2CC1CC1 [Ib-222],9
16,CN(C)CCNC(=O)c1ccc2c(c1)nc1n2CC[C@H]2[C@@H]1[C@H](c1cccc(Cl)c1F)[C@]1(C(=O)Nc3cc(Cl)ccc31)N2CC1CC1 [Ib-223],5
17,CC1(NC(=O)c2ccc3c(c2)nc2n3CC[C@H]3[C@@H]2[C@H](c2cccc(Cl)c2F)[C@]2(C(=O)Nc4cc(Cl)ccc42)N3CC2CC2)COC1 [Ib-225],5
18,CC1(CNC(=O)c2ccc3c(c2)nc2n3CC[C@H]3[C@@H]2[C@H](c2cccc(Cl)c2F)[C@]2(C(=O)Nc4cc(Cl)ccc42)N3CC2CC2)COC1 [Ib-226],5
19,O=C(c1ccc2c(c1)nc1n2CC[C@H]2[C@@H]1[C@H](c1cccc(Cl)c1F)[C@]1(C(=O)Nc3cc(Cl)ccc31)N2CC1CC1)N1CC(O)C1 [Ib-227],4
20,CN1CC(NC(=O)c2ccc3c(c2)nc2n3CC[C@H]3[C@@H]2[C@H](c2cccc(Cl)c2F)[C@]2(C(=O)Nc4cc(Cl)ccc42)N3CC2CC2)C1 [Ib-228],5
21,O=C(NC1COCC1O)c1ccc2c(c1)nc1n2CC[C@H]2[C@@H]1[C@H](c1cccc(Cl)c1F)[C@]1(C(=O)Nc3cc(Cl)ccc31)N2CC1CC1 (stereo partly drawn) [Ib-229],4
22,CN(O)C(=O)c1ccc2c(c1)nc1n2CC[C@H]2[C@@H]1[C@H](c1cccc(Cl)c1F)[C@]1(C(=O)Nc3cc(Cl)ccc31)N2CC1CC1 [Ib-230],10

row,Structure (SMILES),IC50 [nM]
1,O=C(NO)c1ccc2c(c1)nc1n2CC[C@H]2[C@@H]1[C@H](c1cccc(Cl)c1F)[C@]1(C(=O)Nc3cc(Cl)ccc31)N2CC1CC1 [Ib-231],4
2,CC(C)CN1[C@H]2CCn3c(nc4cc(C(N)=O)ccc43)[C@H]2[C@H](c2cccc(Cl)c2F)[C@]12C(=O)Nc1cc(Cl)ccc12 [Ib-232],3
3,CNC(=O)c1ccc2c(c1)nc1n2CC[C@H]2[C@@H]1[C@H](c1cccc(Cl)c1F)[C@]1(C(=O)Nc3cc(Cl)ccc31)N2CC(C)C [Ib-233],4
4,CNC(=O)c1cc2nc3n(c2cc1OC)CC[C@H]1[C@@H]3[C@H](c2cccc(Cl)c2F)[C@]2(C(=O)Nc3cc(Cl)ccc32)N1CC1CC1 [Ib-235],3
5,COc1cc2c(cc1C(=O)N(C)C)nc1n2CC[C@H]2[C@@H]1[C@H](c1cccc(Cl)c1F)[C@]1(C(=O)Nc3cc(Cl)ccc31)N2CC1CC1 [Ib-236],5
6,CNC(=O)c1cc2nc3n(c2cc1C)CC[C@H]1[C@@H]3[C@H](c2cccc(Cl)c2F)[C@]2(C(=O)Nc3cc(Cl)ccc32)N1CC1CC1 [Ib-237],10
7,NC(=O)c1ccc2nc3n(c2c1)CC[C@H]1[C@@H]3[C@H](c2cccc(Cl)c2F)[C@]2(C(=O)Nc3cc(Cl)ccc32)N1CC1CC1 [Ib-238],6
8,NC(=O)c1ccc2c(c1)nc1n2C[C@H]2[C@@H]1[C@H](c1cccc(Cl)c1F)[C@]1(C(=O)Nc3cc(Cl)ccc31)N2CC1CC1 [Ib-239],3
9,CNC(=O)c1ccc2c(c1)nc1n2C[C@H]2[C@@H]1[C@H](c1cccc(Cl)c1F)[C@]1(C(=O)Nc3cc(Cl)ccc31)N2CC1CC1 [Ib-240],3
10,CCOc1cccc(CN2[C@H]3Cn4c(nc5cc(C(N)=O)ccc54)[C@H]3[C@H](c3cccc(Cl)c3F)[C@]23C(=O)Nc2cc(Cl)ccc23)c1 [Ib-241],4
11,CCOc1cccc(CN2[C@H]3Cn4c(nc5cc(C(N)=O)ccc54)[C@H]3[C@H](c3cccc(Cl)c3F)[C@]23C(=O)Nc2cc(Cl)ccc23)c1 [Ib-242],2
12,CCOc1cccc(CN2[C@@H]3Cn4c(nc5cc(C(N)=O)ccc54)[C@@H]3[C@@H](c3cccc(Cl)c3F)[C@@]23C(=O)Nc2cc(Cl)ccc23)c1 [Ib-243],99
13,CCOc1cccc(CN2[C@H]3Cn4c(nc5cc(C(=O)NO)ccc54)[C@H]3[C@H](c3cccc(Cl)c3F)[C@]23C(=O)Nc2cc(Cl)ccc23)c1 [Ib-244],3
14,O=C1Nc2cc(Cl)ccc2[C@@]12[C@@H](c1cccc(Cl)c1F)[C@@H]1c3nc4cc(CO)ccc4n3CC[C@@H]1N2CC1CC1 [Ib-245],20
15,Nc1ccc2c(c1)nc1n2CC[C@H]2[C@@H]1[C@H](c1cccc(Cl)c1F)[C@]1(C(=O)Nc3cc(Cl)ccc31)N2CC1CC1 [Ib-247],27
16,O=C1Nc2cc(Cl)ccc2[C@@]12[C@@H](c1cccc(Cl)c1F)[C@@H]1c3nc4cc(N5CCCCC5)ccc4n3CC[C@@H]1N2CC1CC1 [Ib-249],240
17,O=C1Nc2cc(Cl)ccc2[C@@]12[C@@H](c1cccc(Cl)c1F)[C@@H]1c3nc4ccccc4n3CC[C@@H]1N2CC1CC1 [Ib-253],72
18,Cc1c(C(=O)O)ccn2c3c(nc12)[C@@H]1[C@H](C3)N(CC2CC2)[C@@]2(C(=O)Nc3cc(Cl)ccc32)[C@H]1c1ccnc(Cl)c1F [Ic-23],6
19,CCOc1cccc(CN2[C@H]3Cc4c(nc5c(C)c(C(=O)O)ccn45)[C@H]3[C@H](c3ccnc(Cl)c3F)[C@]23C(=O)Nc2cc(Cl)ccc23)c1 [Ic-27],13
20,Cc1c(C(=O)N(C)C)ccn2c3c(nc12)[C@@H]1[C@H](C3)N(CC2CC2)[C@@]2(C(=O)Nc3cc(Cl)ccc32)[C@H]1c1ccnc(Cl)c1F [Ic-29],10
21,Cc1c(C(=O)N2CCCCC2)ccn2c3c(nc12)[C@@H]1[C@H](C3)N(CC2CC2)[C@@]2(C(=O)Nc3cc(Cl)ccc32)[C@H]1c1ccnc(Cl)c1F [Ic-35],10
22,Cc1c(C(=O)N2CCOCC2)ccn2c3c(nc12)[C@@H]1[C@H](C3)N(CC2CC2)[C@@]2(C(=O)Nc3cc(Cl)ccc32)[C@H]1c1ccnc(Cl)c1F [Ic-37],10

# System: p53 wild-type vs. p53 mutant cell lines
# Assay: not given
# Settings: in vitro, PPTP of the NCI; cited from earlier work
row,Structure (SMILES),"cytotoxic activity, median IC50"
1,CCOc1cc(C(C)(C)C)ccc1C1=N[C@@](C)(c2ccc(Cl)cc2)[C@@](C)(c2ccc(Cl)cc2)N1C(=O)N1CCN(CCCS(C)(=O)=O)CC1 [RG-7112],lower median IC50 values for p53 wild-type vs. p53 mutant cell lines

# System: solid tumor xenograft models
# Assay: not given
# Settings: cited from earlier work
row,Structure (SMILES),tumor growth inhibition
1,CCOc1cc(C(C)(C)C)ccc1C1=N[C@@](C)(c2ccc(Cl)cc2)[C@@](C)(c2ccc(Cl)cc2)N1C(=O)N1CCN(CCCS(C)(=O)=O)CC1 [RG-7112],induced tumor growth inhibition

# System: acute lymphoblastic leukemia (ALL) xenograft models with mixed-lineage leukemia (MLL) rearrangement
# Assay: not given
# Settings: cited from earlier work
row,Structure (SMILES),efficacy in xenograft models
1,CCOc1cc(C(C)(C)C)ccc1C1=N[C@@](C)(c2ccc(Cl)cc2)[C@@](C)(c2ccc(Cl)cc2)N1C(=O)N1CCN(CCCS(C)(=O)=O)CC1 [RG-7112],particularly efficacious

# System: human acute myeloid leukemia (AML) and human prostate tumor xenograft models harboring p53 wild-type
# Assay: not given
# Settings: cited from earlier work
row,Structure (SMILES),antiproliferative and proapoptotic activity
1,CCOc1cc(C(C)(C)C)ccc1C1=N[C@@](C)(c2ccc(Cl)cc2)[C@@](C)(c2ccc(Cl)cc2)N1C(=O)N1CCN(CCCS(C)(=O)=O)CC1 [RG7112],antiproliferative and proapoptotic activity
